According to PubChem BioAssay AID2060610 (Molecular Pharmacology Branch, DTP, NCI, 2025):
Several values for one entry are separate records, joined by “and”; a condition that tells them apart may be missing. Identical values can stand only once.

System: 616215-338-R-J1-PDC complex spheroids, viability % test/control
Assay: Anticancer human tumor 616215-338-R-J1-PDC patient-derived colon adenocarcinoma cell line growth inhibition [CLK]
Settings: for viability, T/C: stronger effect = lower value
Method in brief: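 Multi-cell-type spheroids combined patient-derived tumor cells with HUVEC endothelial cells and human mesenchymal stem cells. Paired agents were dosed in half-log steps down from about clinical Cmax, or from 10 microM where Cmax was unknown.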

[1] = curve of first compound, second compound 0.0316 µM
[2] = curve of first compound, second compound 0.1 µM
[3] = curve of first compound, second compound 0.316 µM
[4] = curve of first compound, second compound 1 µM
[5] = curve of first compound, second compound 3.16 µM
[6] = curve of first compound, second compound 10 µM
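Also: spheroids exposed to agents for 7 days.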
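For viability, T/C in this document: 100% = DMSO vehicle wells.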

## NC(=O)C(=Cn1cnc(-c2cc(C(F)(F)F)cc(C(F)(F)F)c2)n1)c1cncnc1 + CN1CCN(c2cc(C(=O)Nc3cc4cc(-c5cnn(C)c5)ccc4cn3)ccn2)CC1
[1]
  IC50: 0.22 µM
[2]
  IC50: 0.103 µM
[3]
  IC50: < 0.00949 µM
[4]
  IC50: < 0.00949 µM
[5]
  IC50: < 0.00949 µM
[6]
  IC50: < 0.00949 µM
Second compound 0.0316 µM, first compound 0.00949 µM
  viability, T/C: 113%
Second compound 0.0316 µM, first compound 0.03 µM
  viability, T/C: 114%
Second compound 0.0316 µM, first compound 0.0949 µM
  viability, T/C: 74.5%
Second compound 0.0316 µM, first compound 0.3 µM
  viability, T/C: 41.2%
Second compound 0.0316 µM, first compound 0.949 µM
  viability, T/C: 19.1%
Second compound 0.0316 µM, first compound 3 µM
  viability, T/C: 9.26%
Second compound 0.1 µM, first compound 0.00949 µM
  viability, T/C: 104%
Second compound 0.1 µM, first compound 0.03 µM
  viability, T/C: 80.3%
Second compound 0.1 µM, first compound 0.0949 µM
  viability, T/C: 53.4%
Second compound 0.1 µM, first compound 0.3 µM
  viability, T/C: 24.4%
Second compound 0.1 µM, first compound 0.949 µM
  viability, T/C: 9.65%
Second compound 0.1 µM, first compound 3 µM
  viability, T/C: 2.06%
Second compound 0.316 µM, first compound 0.00949 µM
  viability, T/C: 13.1%
Second compound 0.316 µM, first compound 0.03 µM
  viability, T/C: 10.7%
Second compound 0.316 µM, first compound 0.0949 µM
  viability, T/C: 1.47%
Second compound 0.316 µM, first compound 0.3 µM
  viability, T/C: 0.24%
Second compound 0.316 µM, first compound 0.949 µM
  viability, T/C: 0.92%
Second compound 0.316 µM, first compound 3 µM
  viability, T/C: 2.69%
Second compound 1 µM, first compound 0.00949 µM
  viability, T/C: 0.11%
Second compound 1 µM, first compound 0.03 µM
  viability, T/C: 0.13%
Second compound 1 µM, first compound 0.0949 µM
  viability, T/C: 1.63%
Second compound 1 µM, first compound 0.3 µM
  viability, T/C: 0.1%
Second compound 1 µM, first compound 0.949 µM
  viability, T/C: 0.37%
Second compound 1 µM, first compound 3 µM
  viability, T/C: 0.09%
Second compound 3.16 µM, first compound 0.00949 µM
  viability, T/C: 0.08%
Second compound 3.16 µM, first compound 0.03 µM
  viability, T/C: 0.11%
Second compound 3.16 µM, first compound 0.0949 µM
  viability, T/C: 0.16%
Second compound 3.16 µM, first compound 0.3 µM
  viability, T/C: 0.13%
Second compound 3.16 µM, first compound 0.949 µM
  viability, T/C: 0.13%
Second compound 3.16 µM, first compound 3 µM
  viability, T/C: 2.73%
Second compound 10 µM, first compound 0.00949 µM
  viability, T/C: 0.1%
Second compound 10 µM, first compound 0.03 µM
  viability, T/C: 0.13%
Second compound 10 µM, first compound 0.0949 µM
  viability, T/C: 0.41%
Second compound 10 µM, first compound 0.3 µM
  viability, T/C: 0.23%
Second compound 10 µM, first compound 0.949 µM
  viability, T/C: 0.23%
Second compound 10 µM, first compound 3 µM
  viability, T/C: 1.29%

## Nc1ccn(C2OC(CO)C(O)C2(F)F)c(=O)n1 (stereo unspecified)
Compound 0.0316 µM
  viability, T/C: 13.9% and 20.9%
Compound 0.1 µM
  viability, T/C: 11.6% and 15.4%
Compound 0.316 µM
  viability, T/C: 9.93% and 15.4%
Compound 1 µM
  viability, T/C: 13.5% and 17%
Compound 3.16 µM
  viability, T/C: 9.75% and 16.1%
Compound 10 µM
  viability, T/C: 11.3% and 14.7%
Curve of compound
  IC50: < 0.0316 µM

## COc1c(OCCCN2CCOCC2)ccc2c3n(c(=NC(=O)c4cnc(N)nc4)nc12)CCN3 + CNC(=O)c1ccc(Nc2nc(OC3CCCC3)c3c(-c4ccc5nc(C)oc5c4)c[nH]c3n2)c(OC)c1
[1]
  IC50: 0.208 µM
[2]
  IC50: 0.0459 µM
[3]
  IC50: < 0.00316 µM
[4]
  IC50: < 0.00316 µM
[5]
  IC50: < 0.00316 µM
[6]
  IC50: < 0.00316 µM
Second compound 0.0316 µM, first compound 0.00316 µM
  viability, T/C: 92.4%
Second compound 0.0316 µM, first compound 0.01 µM
  viability, T/C: 94.7%
Second compound 0.0316 µM, first compound 0.0316 µM
  viability, T/C: 115%
Second compound 0.0316 µM, first compound 0.1 µM
  viability, T/C: 69.1%
Second compound 0.0316 µM, first compound 0.316 µM
  viability, T/C: 45.7%
Second compound 0.0316 µM, first compound 1 µM
  viability, T/C: 32.3%
Second compound 0.1 µM, first compound 0.00316 µM
  viability, T/C: 62.4%
Second compound 0.1 µM, first compound 0.01 µM
  viability, T/C: 61.5%
Second compound 0.1 µM, first compound 0.0316 µM
  viability, T/C: 57.7%
Second compound 0.1 µM, first compound 0.1 µM
  viability, T/C: 34%
Second compound 0.1 µM, first compound 0.316 µM
  viability, T/C: 26.6%
Second compound 0.1 µM, first compound 1 µM
  viability, T/C: 26.1%
Second compound 0.316 µM, first compound 0.00316 µM
  viability, T/C: 41.4%
Second compound 0.316 µM, first compound 0.01 µM
  viability, T/C: 39.3%
Second compound 0.316 µM, first compound 0.0316 µM
  viability, T/C: 26.5%
Second compound 0.316 µM, first compound 0.1 µM
  viability, T/C: 20.6%
Second compound 0.316 µM, first compound 0.316 µM
  viability, T/C: 14.5%
Second compound 0.316 µM, first compound 1 µM
  viability, T/C: 12.5%
Second compound 1 µM, first compound 0.00316 µM
  viability, T/C: 32.9%
Second compound 1 µM, first compound 0.01 µM
  viability, T/C: 30.1%
Second compound 1 µM, first compound 0.0316 µM
  viability, T/C: 21.2%
Second compound 1 µM, first compound 0.1 µM
  viability, T/C: 13.1%
Second compound 1 µM, first compound 0.316 µM
  viability, T/C: 9.29%
Second compound 1 µM, first compound 1 µM
  viability, T/C: 9.49%
Second compound 3.16 µM, first compound 0.00316 µM
  viability, T/C: 35.6%
Second compound 3.16 µM, first compound 0.01 µM
  viability, T/C: 31.1%
Second compound 3.16 µM, first compound 0.0316 µM
  viability, T/C: 21.4%
Second compound 3.16 µM, first compound 0.1 µM
  viability, T/C: 12%
Second compound 3.16 µM, first compound 0.316 µM
  viability, T/C: 9.19%
Second compound 3.16 µM, first compound 1 µM
  viability, T/C: 8.84%
Second compound 10 µM, first compound 0.00316 µM
  viability, T/C: 35.3%
Second compound 10 µM, first compound 0.01 µM
  viability, T/C: 29.4%
Second compound 10 µM, first compound 0.0316 µM
  viability, T/C: 19.2%
Second compound 10 µM, first compound 0.1 µM
  viability, T/C: 11.1%
Second compound 10 µM, first compound 0.316 µM
  viability, T/C: 10.4%
Second compound 10 µM, first compound 1 µM
  viability, T/C: 7.75%
